Measured values: PMC4351868 (Cancer chemotherapy and pharmacology, 2012)
Like-named read-outs stand apart in the source and are kept apart here.

Legend:
[1] = temsirolimus combined with sorafenib; 9 of 19 patients; cited from earlier work
recurrent glioblastoma [2] = conditions: glioblastoma patients; erlotinib in combination with temsirolimus; cited from earlier work
[3] = Serum pharmacokinetics of AEE788 and its metabolite AQM674
[4] = human, in vivo
[5] = format: in vivo, human; conditions: for Serum concentration / Tumor concentration / concentration at 12 h: approximately 12 hours after 8th AEE788 (250 mg) dose; for concentration at 12 h: serum, Serum concentration
[6] = Safety assessment: adverse events; format: in vivo
recurrent glioblastoma [7] = assay: FLT-PET and DCE-/DSC-/DWI-MRI pharmacodynamic imaging; format: in vivo, human
recurrent glioblastoma [8] = assay: Efficacy: tumor response; format: in vivo, human; conditions: for Median PFS: dose expansion phase

## CO[C@H]1C[C@@H]2CC[C@@H](C)[C@@](O)(O2)C(=O)C(=O)N2CCCC[C@H]2C(=O)O[C@H]([C@H](C)C[C@@H]2CC[C@@H](OC(=O)C(C)(CO)CO)[C@H](OC)C2)CC(=O)[C@H](C)/C=C(\C)[C@@H](O)[C@@H](OC)C(=O)[C@H](C)C[C@H](C)/C=C/C=C/C=C/1C [temsirolimus]
[1]
  grade 3 thrombocytopenia, patients: 47%

## C#Cc1cccc(Nc2ncnc3cc(OCCOC)c(OCCOC)cc23)c1 [erlotinib]
Recurrent glioblastoma [2]
  6-month PFS: 12.5%
  PR: none

## C[C@@H](Nc1ncnc2[nH]c(-c3ccc(CN4CCNCC4)cc3)cc12)c1ccccc1 [AQM674]
[3]; Group A
  fold range in exposure over an 11-fold range in doses (50–550 mg): 20 fold
[3]; Group B (EIACD) vs Group A
  effect of EIACD on overall exposure / concentrations: reduced
[3]; human, in vivo
  accumulation after daily (q 24 h) administration versus a single dose: 2-8 times
[3]; once-daily dosing
  PK steady state reached: ≤ 15 days
[4]
  exposure on day 15 relative to day 1: ~3 fold
  time of maximum serum concentration after administration, on average: 4.6 h
[5]; Patient 1
  Serum concentration: 20.6 ng/mL
  Tumor concentration: 196.7 ng/mL
[5]; Patient 2
  Serum concentration: 22.8 ng/mL
  Tumor concentration: 411.2 ng/mL
[5]; Patient 3
  Serum concentration: 31.3 ng/mL
  Tumor concentration: 299.5 ng/mL
[5]; Patient 4
  Serum concentration: 22.8 ng/mL
  Tumor concentration: 93.9 ng/mL

## CCN1CCN(Cc2ccc(-c3cc4c(N[C@H](C)c5ccccc5)ncnc4[nH]3)cc2)CC1 [AEE788]
[3]; human, serum, oral
  Tmax: 5 h
  half-life: > 24 h
[3]; human, serum, oral, 50 mg/day
  AUC(0-t): 82 ng·h/mL
  Cmax: 7.7 ng/mL
  Tmax: 3 h
[3]; human, serum, oral, 100 mg/day
  AUC(0-t): 168 ng·h/mL
  Cmax: 12.7 ng/mL
  Tmax: 4.3 h
[3]; human, serum, oral, 200 mg/day
  AUC(0-t): 189 ng·h/mL
  Cmax: 8.2 ng/mL
  Tmax: 9 h
[3]; human, serum, oral, 250 mg/day
  AUC(0-t): 1440 ng·h/mL
  Cmax: 74.5 ng/mL
  Tmax: 5.9 h
[3]; human, serum, oral, 300 mg/day
  AUC(0-t): 628 ng·h/mL
  Cmax: 55.2 ng/mL
  Tmax: 4.9 h
[3]; human, serum, oral, 400 mg/day
  AUC(0-t): 1150 ng·h/mL
  Cmax: 77.1 ng/mL
  Tmax: 6.7 h
[3]; human, serum, oral, 450 mg/day
  AUC(0-t): 3000 ng·h/mL
  Cmax: 148 ng/mL
  Tmax: 11 h
[3]; human, serum, oral, 550 mg/day
  AUC(0-t): 4300 ng·h/mL
  Cmax: 234 ng/mL
  Tmax: 12.5 h
[3]; human, serum, oral, 600 mg/day
  AUC(0-t): 730 ng·h/mL
  Cmax: 71.8 ng/mL
  Tmax: 3.7 h
[3]; human, serum, oral, 800 mg/day
  AUC(0-t): 1460 ng·h/mL
  Cmax: 95.2 ng/mL
  Tmax: 3 h
[4]
  PK steady state reached: ≤ 15 days
  accumulation after daily (q 24 h) administration versus a single dose: 2-8 times
  effect of EIACD on overall exposure / concentrations: reduced
  exposure of Group B patients at 600 mg relative to Group A patients at 550 mg: half
  fold range in exposure over an 11-fold range in doses (50–550 mg): 52 fold
  mean coefficient of variation in AUC0–24: 67%
  range of coefficient of variation in AUC0–24: 47-102%
[4]; 15 day
  exposure on day 15 relative to day 1: approximately 4.5 fold
[5]; human, glioblastoma tumor / plasma, oral, 250 mg
  Kp: 14 to 59
[5]; human, oral, 250 mg, Patient 1
  concentration at 12 h: 57.3 ng/mL
[5]; human, oral, 250 mg, Patient 2
  concentration at 12 h: 41.9 ng/mL
[5]; human, oral, 250 mg, Patient 3
  concentration at 12 h: 141 ng/mL
[5]; human, oral, 250 mg, Patient 4
  concentration at 12 h: 110 ng/mL
[6]; Group A
  deaths within 28 days of last dose of AEE788: 4 deaths
[6]; Group A, of 26 patients
  Treatment discontinuation due to death: 2 (7.7) n (%)
[6]; Group B, of 14 patients
  Treatment discontinuation due to death: 0 (0) n (%)
[6]; all disease progression
  deaths during AEE788 therapy: Three
[6]; human, in vivo
  hepatotoxicity (at least grade 2 AST or ALT elevations), patients: 27%
  patients who discontinued because of SAEs: 17%
  patients who discontinued treatment because of AEs: 28%
  patients with grade 3/4 AST or ALT elevations: 22%
[6]; in vivo
  patients reporting at least one AE: All patients
  relationship between higher AEE788 dose levels and AST or ALT abnormalities: No relationship
Recurrent glioblastoma [7]; FLT-PET in 6 patients (250, 400, 600 mg)
  change in FLT-PET parameters: one patient experienced a significant decrease in PET parameters
Recurrent glioblastoma [7]; any dose level
  pharmacodynamic effects based on FLT-PET and/or MRI analyses: no significant pharmacodynamic effects
Recurrent glioblastoma [8]; 6 of 36 patients
  overall best response: SD for > 3 cycles, patients: 17%
Recurrent glioblastoma [8]; Group A, of 26 patients
  Treatment discontinuation due to progressive disease: 18 (69.2) n (%)
Recurrent glioblastoma [8]; Group B, of 14 patients
  Treatment discontinuation due to progressive disease: 11 (78.6) n (%)
Recurrent glioblastoma [8]; all patients
  complete or partial response: No CR or PR
Recurrent glioblastoma [8]; Group A
  Median PFS: 2.7 (90% CI: 1.9, 2.8) months
Recurrent glioblastoma [8]; Group B
  Median PFS: 1.6 (90% CI: 0.2, 2.6) months
Recurrent glioblastoma [8]; dose-escalation EIACD group, all dose levels (11 patients)
  disease progression causing treatment discontinuation, patients: 78.6%
Recurrent glioblastoma [8]; dose-escalation non-EIACD group, all dose levels (18 patients)
  disease progression causing treatment discontinuation, patients: 69.2%
Recurrent glioblastoma [8]; dose-expansion Arm 1, all dose levels (5 patients)
  disease progression causing treatment discontinuation, patients: 71.4%
Recurrent glioblastoma [8]; dose-expansion Arm 2, all dose levels (10 patients)
  disease progression causing treatment discontinuation, patients: 58.8%
